Measured values published in patent US20240122180A1, “FUNGICIDAL HALOMETHYL KETONES AND HYDRATES AND THEIR MIXTURES” (FMC Corporation, priority 2020, published 2024).

What was measured:
[1] = test system: Phakopsora pachyrhizi (the causal agent of Asian soybean rust); test: Test A: preventive spray on soybean seedlings, visual disease rating (100 = 100% control; * 50 ppm, ** 10 ppm, *** 250 ppm); format: in vivo; details: 100 = 100% disease control, 0 = no control
Procedure, shortened: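 Soybean seedlings sprayed to run-off with compound suspended in acetone/water with 250 ppm PEG400 surfactant, inoculated next day with P. pachyrhizi spores. Kept 24 h saturated at 22 °C, then 8 days at 22 °C before visual rating of disease control (0-100) relative to controls.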

[2] = test system: Puccinia recondita f. sp. tritici (the causal agent of wheat leaf rust); test: Test B: preventive spray on wheat seedlings, disease rating (100 = 100% control; * 50 ppm, ** 10 ppm, *** 250 ppm); format: in vivo; details: 100 = 100% disease control, 0 = no control
Procedure, shortened: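 Wheat seedlings sprayed to run-off with compound in acetone/water (50/50) containing 250 ppm PEG400, inoculated next day with Puccinia recondita f. sp. tritici spores. Held 24 h saturated at 20° C, then 6 days at 20° C; disease control rated 0–100 relative to controls.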

CCOC(=O)c1cnn(Cc2cccc(O/C=C(\OCC)C(F)(F)F)c2C)c1 [compound 303]
Test A disease control rating ([1]; 50 ppm test suspension): 0%
Test B disease control rating ([2]; 50 ppm test suspension): 0%

CCOC(=O)c1cnn(C(C)c2cccc(O/C=C(\OCC)C(F)(F)F)c2)c1 (centres unmarked) [compound 304]
Test A disease control rating ([1]; 50 ppm test suspension): 96%
Test B disease control rating ([2]; 50 ppm test suspension): 0%

CCO/C(=C\Oc1ccc(Cc2ccnc(OCC(F)F)n2)cc1)C(F)(F)F [compound 306]
Test A disease control rating ([1]; 50 ppm test suspension): 96%
Test B disease control rating ([2]; 50 ppm test suspension): 68%

CCOC(=COc1ccc(Cc2ccnc(S(C)(=O)=O)n2)cc1)C(F)(F)F [compound 307]
Test A disease control rating ([1]; 50 ppm test suspension): 0%
Test B disease control rating ([2]; 50 ppm test suspension): 0%

CCOC(=COc1ccc(Cc2ccnc(SC)n2)cc1)C(F)(F)F [compound 308]
Test A disease control rating ([1]; 50 ppm test suspension): 25%
Test B disease control rating ([2]; 50 ppm test suspension): 0%

CCOC(=COc1ccc(CN2CCC(C(=O)OC)CC2)cc1)C(F)(F)F [compound 309]
Test A disease control rating ([1]; 10 ppm test suspension): 100%
Test B disease control rating ([2]; 10 ppm test suspension): 0%

CCOC(=COc1ccc(CN2CCC(C(=O)OC)C2)cc1)C(F)(F)F (centres unmarked) [compound 310]
Test A disease control rating ([1]; 10 ppm test suspension): 100%
Test B disease control rating ([2]; 10 ppm test suspension): 0%

CCOC(=COc1ccc(CN2CCC(C#N)CC2)cc1)C(F)(F)F [compound 311]
Test A disease control rating ([1]; 10 ppm test suspension): 0%
Test B disease control rating ([2]; 10 ppm test suspension): 0%

CCOC(=COc1ccc(CN2CCC(OC)CC2)cc1)C(F)(F)F [compound 312]
Test A disease control rating ([1]; 10 ppm test suspension): 0%
Test B disease control rating ([2]; 10 ppm test suspension): 0%

CCOC(=COc1ccc(Cc2ccnc(OCC[Si](C)(C)C)n2)cc1)C(F)(F)F [compound 313]
Test A disease control rating ([1]; 50 ppm test suspension): 0%
Test B disease control rating ([2]; 50 ppm test suspension): 0%

C[Si](C)(C)CCOc1nccc(Cc2ccc(OCC3(C(F)(F)F)OCCO3)cc2)n1 [compound 314]
Test A disease control rating ([1]; 50 ppm test suspension): 0%
Test B disease control rating ([2]; 50 ppm test suspension): 0%

CCOC(=O)c1cnn(-c2cccc(O/C=C(\OCC)C(F)(F)F)c2)c1 [compound 317]
Test A disease control rating ([1]; 50 ppm test suspension): 0%
Test B disease control rating ([2]; 50 ppm test suspension): 0%

O=C(OC1CCC1)c1cnn(Cc2ccc(OCC3(C(F)(F)F)OCCO3)cc2)c1 [compound 318]
Test A disease control rating ([1]; 10 ppm test suspension): 100%
Test B disease control rating ([2]; 10 ppm test suspension): 0%

CCOC(=O)c1cnn(Cc2ccc(OC(F)(F)C3(C(F)(F)F)OCCO3)cc2)c1 [compound 319]
Test A disease control rating ([1]; 50 ppm test suspension): 100%
Test B disease control rating ([2]; 50 ppm test suspension): 41%

CCOC(=O)c1cnn(COc2cccc(O/C=C(\OCC)C(F)(F)F)c2)c1 [compound 321]
pest or weed control at 10 ppm ([1]; Phakopsora pachyrhizi, 10 ppm test suspension): 100%
pest or weed control at 10 ppm ([2]; Puccinia recondita, 10 ppm test suspension): 0%

CCO/C(=C\Oc1cccc(Cn2cc(C(=O)O)cn2)c1)C(F)(F)F [compound 323]
Test A disease control rating ([1]; 50 ppm test suspension): 100%
Test B disease control rating ([2]; 50 ppm test suspension): 0%

CCCO/C(=C\Oc1cccc(Cn2cc(C(=O)OCC)cn2)c1)C(F)(F)F [compound 324]
Test A disease control rating ([1]; 10 ppm test suspension): 0%
Test B disease control rating ([2]; 10 ppm test suspension): 0%

C#CCOC(=O)c1ccn(Cc2ccc(O/C=C(\OCC)C(F)(F)F)cc2)n1 [compound 325]
Test A disease control rating ([1]; 10 ppm test suspension): 100%
Test B disease control rating ([2]; 10 ppm test suspension): 0%

CCC#CCOC(=O)c1ccn(Cc2ccc(O/C=C(\OCC)C(F)(F)F)cc2)n1 [compound 326]
Test A disease control rating ([1]; 10 ppm test suspension): 100%
Test B disease control rating ([2]; 10 ppm test suspension): 0%

CCO/C(=C\Oc1ccc(Cn2ccc(C(=O)OC(C)C)n2)cc1)C(F)(F)F [compound 327]
Test A disease control rating ([1]; 10 ppm test suspension): 100%
Test B disease control rating ([2]; 10 ppm test suspension): 0%

CCO/C(=C\Oc1ccc(CCn2cc(C(=O)O)cn2)cc1)C(F)(F)F [compound 328]
Test A disease control rating ([1]; 10 ppm test suspension): 100%
Test B disease control rating ([2]; 10 ppm test suspension): 0%

CCO/C(=C\Oc1cccc(Cn2cc(C(=O)OC(C)C)cn2)c1)C(F)(F)F [compound 332]
Test A disease control rating ([1]; 10 ppm test suspension): 100%
Test B disease control rating ([2]; 10 ppm test suspension): 0%

C=CCOC(=O)c1cnn(Cc2cccc(O/C=C(\OCC)C(F)(F)F)c2)c1 [compound 333]
Test A disease control rating ([1]; 10 ppm test suspension): 100%
Test B disease control rating ([2]; 10 ppm test suspension): 0%

CCO/C(=C\Oc1cccc(Cn2cc(C(=O)OCC(C)C)cn2)c1)C(F)(F)F [compound 334]
Test A disease control rating ([1]; 10 ppm test suspension): 100%
Test B disease control rating ([2]; 10 ppm test suspension): 0%

C=C(C)COC(=O)c1cnn(Cc2cccc(O/C=C(\OCC)C(F)(F)F)c2)c1 [compound 335]
Test A disease control rating ([1]; 10 ppm test suspension): 100%
Test B disease control rating ([2]; 10 ppm test suspension): 0%

C#CCOC(=O)c1cnn(Cc2cccc(O/C=C(\OCC)C(F)(F)F)c2)c1 [compound 336]
Test A disease control rating ([1]; 10 ppm test suspension): 100%
Test B disease control rating ([2]; 10 ppm test suspension): 0%

CCO/C(=C\Oc1cccc(Cn2cc(C(=O)OCC(C)=O)cn2)c1)C(F)(F)F [compound 337]
Test A disease control rating ([1]; 10 ppm test suspension): 100%
Test B disease control rating ([2]; 10 ppm test suspension): 0%

CCO/C(=C\Oc1cccc(Cn2cc(C(=O)OCCCCl)cn2)c1)C(F)(F)F [compound 338]
Test A disease control rating ([1]; 10 ppm test suspension): 100%
Test B disease control rating ([2]; 10 ppm test suspension): 0%
